From patent US9302999B2, “Substituted triazoles as herbicides” (E. I. DU PONT DE NEMOURS AND COMPANY, priority 2012, dated 2016)

Columns and labels:
Format in all cases: in vivo
[1] = test system: wheat (Triticum aestivum); assay: Test A pre-/postemergence: wheat; conditions: for Wheat plant response rating: Postemergence; for Plant response rating, Wheat: Preemergence
Method in brief: (§1)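 Pre: directed soil spray after planting in loam + sand. Post: same formulation (non-phytotoxic solvent + surfactant) on 1–2-leaf plants, 2–10 cm. Greenhouse ~10 d; visual injury 0–100 vs untreated.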

[2] = test system: rice (Oryza sativa); assay: Test C flooded paddy test: rice; conditions: scale 0 to 100 (0 no effect, 100 complete control)
Method in brief: (§2)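 Plants were grown to the 2-leaf stage, pots flooded to 3 cm above soil, and test compounds applied directly to the paddy water, with that depth held throughout. After 13 to 15 days in a greenhouse, injury was visually rated against controls on a 0 (no effect) to 100 (complete control) scale.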

[3] = test system: ducksalad (Heteranthera limosa); assay: Test C flooded paddy test: ducksalad; conditions: scale 0 to 100 (0 no effect, 100 complete control)
Method in brief: as §2

[4] = test system: crabgrass, large (large crabgrass, Digitaria sanguinalis); assay: Test A pre-/postemergence: crabgrass, large; conditions: for Crabgrass, Large plant response rating: Postemergence; for Plant response rating, Crabgrass, Large: Preemergence
Method in brief: as §1

[5] = test system: foxtail, giant (giant foxtail, Setaria faberii); assay: Test A pre-/postemergence: foxtail, giant; conditions: for Foxtail, Giant plant response rating: Postemergence; for Plant response rating, Foxtail, Giant: Preemergence
Method in brief: as §1

[6] = test system: morningglory (Ipomoea spp.); assay: Test A pre-/postemergence: morningglory; conditions: for Morningglory plant response rating: Postemergence; for Plant response rating, Morningglory: Preemergence
Method in brief: as §1

[7] = test system: sedge, umbrella (small-flower umbrella sedge, Cyperus difformis); assay: Test C flooded paddy test: sedge, umbrella; conditions: scale 0 to 100 (0 no effect, 100 complete control)
Method in brief: as §2

[8] = test system: velvetleaf (Abutilon theophrasti); assay: Test A pre-/postemergence: velvetleaf; conditions: for Velvetleaf plant response rating: Postemergence; for Plant response rating, Velvetleaf: Preemergence
Method in brief: as §1

[9] = test system: corn (Zea mays); assay: Test A pre-/postemergence: corn; conditions: for Corn plant response rating: Postemergence; for Plant response rating, Corn: Preemergence
Method in brief: as §1

[10] = test system: barnyardgrass (Echinochloa crus-galli); assay: Test C flooded paddy test: barnyardgrass; conditions: scale 0 to 100 (0 no effect, 100 complete control)
Method in brief: as §2

[11] = test system: barnyardgrass (Echinochloa crus-galli); assay: Test A pre-/postemergence: barnyardgrass; conditions: for Barnyardgrass plant response rating: Postemergence; for Plant response rating, Barnyardgrass: Preemergence
Method in brief: as §1

[12] = test system: pigweed (Amaranthus retroflexus); assay: Test A pre-/postemergence: pigweed; conditions: for Pigweed plant response rating: Postemergence; for Plant response rating, Pigweed: Preemergence
Method in brief: as §1

[13] = 125 g ai/ha, 0 to 100 scale, 0 is no effect, 100 is complete control
[14] = 500 g ai/ha, visual rating on 0 to 100 scale (0 no effect, 100 complete control), approximately ten days
[15] = 125 g ai/ha, 0 to 100 scale (0 no effect, 100 complete control)
[16] = 500 g ai/ha, 0 to 100 scale, 0 is no effect, 100 is complete control
[17] = Flood (flooded paddy test), 62 g ai/ha, visual rating after 13 to 15 days
[18] = Flood (flooded paddy test), 250 g ai/ha, visual rating after 13 to 15 days
[19] = 125 g ai/ha, 0 to 100 scale where 0 is no effect and 100 is complete control
[20] = Flood (flooded paddy test), 125 g ai/ha, visual rating after 13 to 15 days

Cc1nn(-c2cncc(C(F)(F)F)c2)nc1C(=O)c1cccc(C(F)(F)F)c1 [Compound 66]
30: Pigweed plant response rating [12, 14]
70: Plant response rating, Foxtail, Giant [5, 16]
10: Wheat plant response rating [1, 14] | Crabgrass, Large plant response rating [4, 13] | Crabgrass, Large plant response rating [4, 14] | Plant response rating, Crabgrass, Large [4, 15] | Foxtail, Giant plant response rating [5, 14] | Plant response rating, Foxtail, Giant [5, 15] | Morningglory plant response rating [6, 14] | Velvetleaf plant response rating [8, 14] | Corn plant response rating [9, 14] | Barnyardgrass plant response rating [11, 14] | Pigweed plant response rating [12, 13] | Plant response rating, Pigweed [12, 16]
50: Plant response rating, Crabgrass, Large [4, 16]
0: Wheat plant response rating [1, 13] | Plant response rating, Wheat [1, 15] | Plant response rating, Wheat [1, 16] | Plant response rating, Rice [2, 17] | Plant response rating, Rice [2, 18] | Plant response rating, Ducksalad [3, 17] | Plant response rating, Ducksalad [3, 18] | Foxtail, Giant plant response rating [5, 13] | Morningglory plant response rating [6, 13] | Plant response rating, Morningglory [6, 15] | Plant response rating, Morningglory [6, 16] | Plant response rating, Sedge, Umbrella [7, 17] | Plant response rating, Sedge, Umbrella [7, 18] | Velvetleaf plant response rating [8, 13] | Plant response rating, Velvetleaf [8, 15] | Plant response rating, Velvetleaf [8, 16] | Corn plant response rating [9, 13] | Plant response rating, Corn [9, 15] | Plant response rating, Corn [9, 16] | Plant response rating, Barnyardgrass [10, 17] | Plant response rating, Barnyardgrass [10, 18] | Barnyardgrass plant response rating [11, 13] | Plant response rating, Barnyardgrass [11, 15] | Plant response rating, Barnyardgrass [11, 16] | Plant response rating, Pigweed [12, 15]

Cc1nn(-c2cccc(I)c2)nc1C(=O)c1cccc(C(F)(F)F)c1 [Compound 90]
30: Pigweed plant response rating [12, 14]
0: Wheat plant response rating [1, 13] | Wheat plant response rating [1, 14] | Plant response rating, Wheat [1, 19] | Plant response rating, Wheat [1, 16] | Plant response rating, Rice [2, 20] | Plant response rating, Rice [2, 18] | Plant response rating, Rice ([2]; Flood, 31 g ai/ha) | Plant response rating, Rice ([2]; Flood, 62 g ai/ha) | Plant response rating, Ducksalad [3, 20] | Plant response rating, Ducksalad [3, 18] | Plant response rating, Ducksalad ([3]; Flood, 31 g ai/ha) | Plant response rating, Ducksalad ([3]; Flood, 62 g ai/ha) | Crabgrass, Large plant response rating [4, 13] | Plant response rating, Crabgrass, Large [4, 15] | Plant response rating, Crabgrass, Large [4, 16] | Foxtail, Giant plant response rating [5, 13] | Plant response rating, Foxtail, Giant [5, 19] | Plant response rating, Foxtail, Giant [5, 16] | Morningglory plant response rating [6, 13] | Plant response rating, Morningglory [6, 19] | Plant response rating, Morningglory [6, 16] | Plant response rating, Sedge, Umbrella [7, 20] | Plant response rating, Sedge, Umbrella [7, 18] | Plant response rating, Sedge, Umbrella ([7]; Flood, 31 g ai/ha) | Plant response rating, Sedge, Umbrella ([7]; Flood, 62 g ai/ha) | Velvetleaf plant response rating [8, 13] | Velvetleaf plant response rating [8, 14] | Plant response rating, Velvetleaf [8, 19] | Plant response rating, Velvetleaf [8, 16] | Corn plant response rating [9, 13] | Plant response rating, Corn [9, 15] | Plant response rating, Corn [9, 16] | Plant response rating, Barnyardgrass [10, 20] | Plant response rating, Barnyardgrass [10, 18] | Plant response rating, Barnyardgrass ([10]; Flood, 31 g ai/ha) | Plant response rating, Barnyardgrass ([10]; Flood, 62 g ai/ha) | Barnyardgrass plant response rating [11, 13] | Plant response rating, Barnyardgrass [11, 15] | Plant response rating, Barnyardgrass [11, 16] | Pigweed plant response rating [12, 13] | Plant response rating, Pigweed [12, 19] | Plant response rating, Pigweed [12, 16]
10: Crabgrass, Large plant response rating [4, 14] | Foxtail, Giant plant response rating [5, 14] | Morningglory plant response rating [6, 14] | Corn plant response rating [9, 14] | Barnyardgrass plant response rating [11, 14]

Cc1nn(-c2ccc(Br)cc2)nc1C(=O)c1cccc(C(F)(F)F)c1 [Compound 92]
20: Foxtail, Giant plant response rating [5, 14] | Plant response rating, Foxtail, Giant [5, 16] | Velvetleaf plant response rating [8, 13] | Velvetleaf plant response rating [8, 14]
0: Wheat plant response rating [1, 13] | Plant response rating, Wheat [1, 19] | Plant response rating, Wheat [1, 16] | Plant response rating, Rice [2, 20] | Plant response rating, Rice [2, 18] | Plant response rating, Rice ([2]; Flood, 31 g ai/ha) | Plant response rating, Rice ([2]; Flood, 62 g ai/ha) | Plant response rating, Ducksalad [3, 20] | Plant response rating, Ducksalad [3, 18] | Plant response rating, Ducksalad ([3]; Flood, 31 g ai/ha) | Plant response rating, Ducksalad ([3]; Flood, 62 g ai/ha) | Plant response rating, Morningglory [6, 19] | Plant response rating, Morningglory [6, 16] | Plant response rating, Sedge, Umbrella [7, 20] | Plant response rating, Sedge, Umbrella [7, 18] | Plant response rating, Sedge, Umbrella ([7]; Flood, 31 g ai/ha) | Plant response rating, Sedge, Umbrella ([7]; Flood, 62 g ai/ha) | Plant response rating, Velvetleaf [8, 19] | Plant response rating, Velvetleaf [8, 16] | Plant response rating, Corn [9, 15] | Plant response rating, Corn [9, 16] | Plant response rating, Barnyardgrass [10, 20] | Plant response rating, Barnyardgrass [10, 18] | Plant response rating, Barnyardgrass ([10]; Flood, 31 g ai/ha) | Plant response rating, Barnyardgrass ([10]; Flood, 62 g ai/ha) | Barnyardgrass plant response rating [11, 13] | Plant response rating, Barnyardgrass [11, 15] | Plant response rating, Barnyardgrass [11, 16] | Plant response rating, Pigweed [12, 19]
10: Wheat plant response rating [1, 14] | Crabgrass, Large plant response rating [4, 13] | Plant response rating, Crabgrass, Large [4, 15] | Foxtail, Giant plant response rating [5, 13] | Plant response rating, Foxtail, Giant [5, 19] | Morningglory plant response rating [6, 13] | Corn plant response rating [9, 13] | Corn plant response rating [9, 14] | Barnyardgrass plant response rating [11, 14] | Plant response rating, Pigweed [12, 16]
30: Crabgrass, Large plant response rating [4, 14] | Morningglory plant response rating [6, 14] | Pigweed plant response rating [12, 13]
40: Plant response rating, Crabgrass, Large [4, 16]
90: Pigweed plant response rating [12, 14]

Cc1nn(-c2ccc(C(F)(F)F)cc2)nc1Oc1cnn(CC(F)(F)F)c1 [Compound 74]
0: Wheat plant response rating [1, 13] | Wheat plant response rating [1, 14] | Plant response rating, Wheat [1, 15] | Plant response rating, Wheat [1, 16] | Plant response rating, Rice [2, 17] | Plant response rating, Rice [2, 20] | Plant response rating, Rice [2, 18] | Plant response rating, Rice ([2]; Flood, 31 g ai/ha) | Plant response rating, Ducksalad [3, 17] | Plant response rating, Ducksalad [3, 20] | Plant response rating, Ducksalad [3, 18] | Plant response rating, Ducksalad ([3]; Flood, 31 g ai/ha) | Crabgrass, Large plant response rating [4, 13] | Crabgrass, Large plant response rating [4, 14] | Plant response rating, Crabgrass, Large [4, 15] | Plant response rating, Crabgrass, Large [4, 16] | Foxtail, Giant plant response rating [5, 13] | Foxtail, Giant plant response rating [5, 14] | Plant response rating, Foxtail, Giant [5, 15] | Plant response rating, Foxtail, Giant [5, 16] | Morningglory plant response rating [6, 13] | Morningglory plant response rating [6, 14] | Plant response rating, Morningglory [6, 15] | Plant response rating, Morningglory [6, 16] | Plant response rating, Sedge, Umbrella [7, 17] | Plant response rating, Sedge, Umbrella [7, 20] | Plant response rating, Sedge, Umbrella [7, 18] | Plant response rating, Sedge, Umbrella ([7]; Flood, 31 g ai/ha) | Velvetleaf plant response rating [8, 13] | Velvetleaf plant response rating [8, 14] | Plant response rating, Velvetleaf [8, 15] | Plant response rating, Velvetleaf [8, 16] | Corn plant response rating [9, 13] | Corn plant response rating [9, 14] | Plant response rating, Corn [9, 15] | Plant response rating, Corn [9, 16] | Plant response rating, Barnyardgrass [10, 17] | Plant response rating, Barnyardgrass [10, 20] | Plant response rating, Barnyardgrass [10, 18] | Plant response rating, Barnyardgrass ([10]; Flood, 31 g ai/ha) | Barnyardgrass plant response rating [11, 13] | Barnyardgrass plant response rating [11, 14] | Plant response rating, Barnyardgrass [11, 15] | Plant response rating, Barnyardgrass [11, 16] | Pigweed plant response rating [12, 13] | Pigweed plant response rating [12, 14] | Plant response rating, Pigweed [12, 15] | Plant response rating, Pigweed [12, 16]
